Experimental data published in patent US12723063B2, “GIPR-agonist compounds” (Eli Lilly and Company, priority 2019, dated 2026).
*1 amine or outer side, *2 acyl side, *3 side chain or, on linkers, in order; H or OH if unused. Where a SMILES comes first, the peptide text is derived from it. Side-chain parts run from the residue outwards. [ ]: non-standard residue; d: D form. The star is where a group is joined. C20 diacid = O=C(O)CCCCCCCCCCCCCCCCCCC(=O)*; γGlu = O=C(O)[C@H](CCC(=O)[*:2])N[*:1]; αMeL = CC(C)C[C@](C)(N)C(=O)O; AEEA = NCCOCCOCC(=O)O; Aib = CC(C)(N)C(=O)O

Columns and labels:
[1] = target: T1, human GIPR (Homo sapiens, UniProt P48546); experiment: [125I]-GIP binding, SPA with WGA beads, 0.1% bacitracin; conditions: geometric mean, read-out: hGIPR Ki
T1 construct: expressed in transfected cells; crude membranes
T1 sequence (P48546 22-466): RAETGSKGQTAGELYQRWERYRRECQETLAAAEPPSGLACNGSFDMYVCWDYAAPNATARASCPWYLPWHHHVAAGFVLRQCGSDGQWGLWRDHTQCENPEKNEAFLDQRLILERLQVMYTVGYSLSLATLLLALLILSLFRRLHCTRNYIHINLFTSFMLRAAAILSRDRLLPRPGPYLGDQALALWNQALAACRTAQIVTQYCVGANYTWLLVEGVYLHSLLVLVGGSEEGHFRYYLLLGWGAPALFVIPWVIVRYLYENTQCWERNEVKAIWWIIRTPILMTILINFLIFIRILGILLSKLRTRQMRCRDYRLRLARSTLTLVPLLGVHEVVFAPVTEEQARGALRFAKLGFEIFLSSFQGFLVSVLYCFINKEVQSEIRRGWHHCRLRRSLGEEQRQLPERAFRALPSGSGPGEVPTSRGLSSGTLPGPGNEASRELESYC
Protocol: (§1) Stably transfected cell lines are prepared by subcloning receptor cDNA into a pcDNA3 expression plasmid and transfected into human embryonic kidney (HEK) 293 (hGcgR and hGLP-1R) or Chinese Hamster Ovary (CHO) (hGIPR) cells followed by selection with Geneticin (hGLP-1R and hGIPR) or hygromycin B (hGcgR).
(§2) Two methods are used for the preparation of crude cell membranes.
(§3) Method 1: Frozen cell pellets are lysed on ice in hypotonic buffer containing 50 mM Tris HCl, pH 7.5, and Roche Complete™ Protease Inhibitors with EDTA. The cell suspension is disrupted using a glass Potter-Elvehjem homogenizer fitted with a Teflon® pestle for 25 strokes. The homogenate is centrifuged at 4° C. at 1100× g for 10 minutes. The supernatant is collected and stored on ice while the pellets are resuspended in homogenization buffer and rehomogenized as described above. The homogenate is centrifuged at 1100× g for 10 minutes. The second supernatant is combined with the first supernatant and centrifuged at 35000× g for 1 hour at 4° C. The resulting membrane pellet is resuspended in homogenization buffer containing protease inhibitors at approximately 1 to 3 mg/mL, quick frozen in liquid nitrogen and stored as aliquots in a −80° C. freezer until use.
(§4) Method 2: Frozen cell pellets are lysed on ice in hypotonic buffer containing 50 mM Tris HCl, pH 7.5, 1 mM MgCl2, Roche Complete™ EDTA-free Protease Inhibitors and 25 units/mL DNAse I (Invitrogen). The cell suspension is disrupted using a glass Potter-Elvehjem homogenizer fitted with a Teflon® pestle for 20 to 25 strokes. The homogenate is centrifuged at 4° C. at 1800× g for 15 minutes. The supernatant is collected and stored on ice while the pellets are resuspended in homogenization buffer (without DNAse I) and rehomogenized as described above. The homogenate is centrifuged at 1800× g for 15 minutes. The second supernatant is combined with the first supernatant and centrifuged an additional time at 1800× g for 15 minutes. The overall supernatant is then centrifuged at 25000× g for 30 minutes at 4° C. The resulting membrane pellet is resuspended in homogenization buffer (without DNAse I) containing protease inhibitors at approximately 1 to 3 mg/mL and stored as aliquots in a −80° C. freezer until use.
The binding buffer contains 25 mM HEPES, pH 7.4, 2.5 mM CaCl2), 1 mM MgCl2, 0.1% (w/v) bacitracin, 0.003% (w/v) TWEEN®-20, and Roche Complete™ Protease Inhibitors without EDTA. […] Plates are sealed and mixed on a plate shaker (setting 6) for 1 minute and read with a PerkinElmer Trilux MicroBeta® scintillation counter after 2.5 to 12 hours of incubation/settling time at room temperature.
(§5) Data are analyzed using four-parameter (curve maximum, curve minimum, IC50, Hill slope) nonlinear regression routines (Genedata Screener, version 12.0.4, Genedata AG, Basal, Switzerland). […] Values for Ki are reported as the geometric mean, with error expressed as the standard error of the mean (SEM) and n is equal to the number of independent replicates (determined in assays performed on different days). […] SEM is only calculated when […] or greater. Means are expressed as geometric means with the standard error of the mean (SEM) and the number of replicates (n) indicated in parentheses.

[2] = target: T2, human GLP-1R (Homo sapiens, UniProt P43220); experiment: [125I]-GLP-1 binding, SPA with WGA beads, 0.1% bacitracin; conditions: geometric mean, read-out: hGLP1R Ki
T2 construct: expressed in transfected cells; crude membranes
T2 sequence (P43220 24-463): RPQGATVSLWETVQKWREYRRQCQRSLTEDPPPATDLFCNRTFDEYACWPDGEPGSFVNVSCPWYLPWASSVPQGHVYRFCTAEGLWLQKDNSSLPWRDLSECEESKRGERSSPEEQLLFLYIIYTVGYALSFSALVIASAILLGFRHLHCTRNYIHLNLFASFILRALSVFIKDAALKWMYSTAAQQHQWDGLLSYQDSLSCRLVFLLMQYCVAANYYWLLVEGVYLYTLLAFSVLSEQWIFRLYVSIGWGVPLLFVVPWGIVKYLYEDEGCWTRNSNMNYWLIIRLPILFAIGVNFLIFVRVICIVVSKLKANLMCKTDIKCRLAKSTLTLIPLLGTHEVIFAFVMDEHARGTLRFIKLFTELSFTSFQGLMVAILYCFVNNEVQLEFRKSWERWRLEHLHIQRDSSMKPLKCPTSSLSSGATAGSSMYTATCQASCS
Protocol: as §1, §2, §3, §4
The binding buffer contains 25 mM HEPES, pH 7.4, 2.5 mM CaCl2), 1 mM MgCl2, 0.1% (w/v) bacitracin, 0.003% (w/v) TWEEN®-20, and Roche Complete™ Protease Inhibitors without EDTA.
as §5

[3] = target: T3, human GLP-1 receptor (GLP-1R) (Homo sapiens, UniProt P43220); experiment: cAMP functional assay (HTRF) in HEK293 cells in presence of 0.1% casein; type: cell-based; conditions: HEK293 cells expressing human GLP-1R, geometric mean, read-out: hGLP1R cAMP Rel EC50 nM (SEM, n)
T3 construct: expressed in transfected cells; host or cells: HEK293
T3 sequence (P43220 24-463): as above
Protocol: (§6) Each receptor over-expressing cell line (20 μl) is treated with the test peptide in DMEM (Gibco Cat #31053) supplemented with 0.1% Casein (Sigma Cat #C4765), 250 μM IBMX, 1× GlutaMAX™ (Gibco Cat #35050), and 20 mM HEPES (HyClone Cat #SH30237.01) in a 20 μl assay volume. After incubating for 60 minutes at room temperature, the resulting increase in intracellular CAMP is quantitatively determined using the CisBio CAMP Dynamic 2 HTRF Assay Kit (62AM4PEJ). The Lysis buffer containing cAMP-d2 conjugate (20 μl) and the antibody anti-cAMP-Eu3+-Cryptate (20 μl) are then added to determine the cAMP level. After incubating 60 minutes at room temperature, HTRF signal is detected with an Envision 2104 plate reader (PerkinElmer). Fluorescent emission at 620 nm and at 665 nm is measured and the ratio between 620 nm and at 665 nm is calculated and then are converted to nM cAMP per well using a cAMP standard curve. Dose response curves of compounds are plotted as the percentage of stimulation normalized to minimum (buffer only) and maximum (maximum concentration of each control ligand) values and analyzed using a four parameter non-linear regression fit with a variable slope (Genedata Screener 13). EC50 is the concentration of compound causing half-maximal simulation in a dose response curve. A relative EC50 value is derived by non-linear regression analysis using the percent maximal response vs, the concentration of peptide added, fitted to a four-parameter logistic equation.
(§7) Intracellular cAMP levels are determined by extrapolation using a standard curve. Dose response curves of compounds are plotted as the percentage of stimulation normalized to minimum (buffer only) and maximum (maximum concentration of each control ligand) values and analyzed using a four-parameter non-linear regression fit with a variable slope (Genedata Screener 13). EC50 is the concentration of compound causing half-maximal simulation in a dose response curve. Each relative EC50 value for the geometric mean calculation is determined from a curve fitting.
(§8) Concentration response curves of compounds are plotted as the percentage of stimulation normalized to minimum (buffer only) and maximum (maximum concentration of each control ligand) values and analyzed using a four-parameter non-linear regression fit with a variable slope (Genedata Screener 13). EC50 is the concentration of compound causing half-maximal simulation in a dose response curve. […] The standard error of the mean is reported:
(§9) [formula] • The log transform accounts for the EC50 values falling on a multiplicative, rather than an arithmetic scale.
(§10) For illustration, as shown by Example 1, the peptide is tested in 8 runs of the hGIPR CAMP assay. […] Accordingly, each Example will use the geometric mean of those values to normalize the Example assay runs.

[4] = target: T4, human glucagon receptor (GcgR) (Homo sapiens, UniProt P47871); experiment: as above; type: cell-based; conditions: HEK293 cells expressing human GcgR, geometric mean, read-out: hGcgR cAMP Rel EC50 nM (SEM, n)
T4 construct: expressed in transfected cells; host or cells: HEK293
T4 sequence (P47871 26-477): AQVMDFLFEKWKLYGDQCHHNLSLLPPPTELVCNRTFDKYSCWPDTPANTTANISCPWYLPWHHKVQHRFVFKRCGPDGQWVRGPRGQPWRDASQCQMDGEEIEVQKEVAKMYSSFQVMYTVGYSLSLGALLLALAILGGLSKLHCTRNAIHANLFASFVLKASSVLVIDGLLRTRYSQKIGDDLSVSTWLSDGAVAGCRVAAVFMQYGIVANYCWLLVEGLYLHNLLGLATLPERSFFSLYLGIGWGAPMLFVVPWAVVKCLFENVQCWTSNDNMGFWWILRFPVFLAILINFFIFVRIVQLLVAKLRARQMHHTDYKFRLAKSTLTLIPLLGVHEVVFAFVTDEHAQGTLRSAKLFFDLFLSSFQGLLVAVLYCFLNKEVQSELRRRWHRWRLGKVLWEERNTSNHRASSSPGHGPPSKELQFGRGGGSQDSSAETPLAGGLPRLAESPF
Protocol: as §6, §7, §8, §9, §10

[5] = target: T5, human glucose-dependent insulinotropic peptide receptor (GIPR) (Homo sapiens, UniProt P48546); experiment: as above; type: cell-based; conditions: HEK293 cells expressing human GIPR, geometric mean, read-out: hGIPR cAMP Rel EC50 nM (SEM, n)
T5 construct: expressed in transfected cells; host or cells: HEK293
T5 sequence (P48546 22-466): T1 sequence (P48546 22-466)
Protocol: as §6, §7, §8, §9, §10

[6] = test system: CD4+ T cells (CD8+ T cell-depleted PBMCs); experiment: CD4+ T cell proliferation assay (immunogenicity assessment); type: cell-based, human; conditions: 0.33 μM, 7 days
Protocol: Protein therapeutics that induce less than 30% positive response in the CD4+ T cell proliferation assay are associated with a low risk of immunogenicity. Briefly, to assess the propensity for a clinical immunogenic response to the compounds of Examples 1, 2, 3, 5, and 6, CD8+ T cell-depleted peripheral blood mononuclear cells (PBMCs) are prepared and labeled with carboxyfluorescein diacetate succinimidyl ester (CFSE; Invitrogen) from a cohort of 10 healthy donors with diverse human leukocyte antigen (HLA) class II haplotypes. Each donor is tested in triplicate with 2.0 mL media control, keyhole limpet hemocyanin (KLH: 0.33 μM), and the compounds of Examples 1, 2, 3, 5, and 6 (0.33 μM). Cultures are incubated for 7 days at 37° C. with 5% CO2. On day 7, samples are analyzed by flow cytometry using a BD LSR II Fortessa (Becton Dickinson; Franklin Lakes, NJ), equipped with a high throughput sampler (HTS). Data is analyzed using FlowJo® Software (FlowJo, LLC/TreeStar; Ashland, OR).
• Cell Division Index (“CDI”): proportion of divided CD4+ T cells to the total number of CD4+ T cells in stimulated versus unstimulated samples.

Row | Molecule | Ki [1] [nM] | Ki [2] [nM] | EC50 [3] [nM] | EC50 [4] [nM] | EC50 [5] [nM] | % Donor Response (n = 10) ([6]; 10 healthy donors, positive response CDI>2.5) [%] | Median Response Strength in positive donors (CDI) ([6]; Cell Division Index)
1 | CC[C@H](C)[C@H](NC(=O)[C@H](CCCCN)NC(=O)[C@H](CC(=O)O)NC(=O)[C@H](CC(C)C)NC(=O)[C@](C)(CC(C)C)NC(=O)[C@@H](NC(=O)[C@H](CO)NC(=O)[C@H](Cc1ccc(O)cc1)NC(=O)[C@H](CC(=O)O)NC(=O)[C@H](CO)NC(=O)[C@@H](NC(=O)[C@H](Cc1ccccc1)NC(=O)[C@@H](NC(=O)CNC(=O)[C@H](CCC(=O)O)NC(=O)C(C)(C)NC(=O)[C@@H](N)Cc1ccc(O)cc1)[C@@H](C)O)[C@@H](C)CC)[C@@H](C)CC)C(=O)N[C@@H](CCCNC(=N)N)C(=O)N[C@@H](CCC(N)=O)C(=O)NC(C)(C)C(=O)N[C@@H](CC(=O)O)C(=O)N[C@@H](Cc1ccccc1)C(=O)N[C@H](C(=O)N[C@@H](CCC(=O)O)C(=O)N[C@@H](Cc1ccc(O)cc1)C(=O)N[C@@H](CCCCNC(=O)COCCOCCNC(=O)COCCOCCNC(=O)CC[C@H](NC(=O)CCCCCCCCCCCCCCCCCCC(=O)O)C(=O)O)C(=O)N[C@@H](CC(C)C)C(=O)N[C@@H](CCC(=O)O)C(=O)N[C@@H](C)C(=O)NCC(=O)N1CCC[C@H]1C(=O)N[C@@H](CO)C(=O)N[C@@H](CO)C(=O)NCC(=O)N[C@@H](C)C(=O)N1CCC[C@H]1C(=O)N1CCC[C@H]1C(=O)N1CCC[C@H]1C(=O)N[C@@H](CO)C(N)=O)C(C)C [Example 118] (H-Y[Aib]EGTFISDYSI[αMeL]LDKIRQ[Aib]DFVEYK([AEEA-AEEA-γGlu-C20 diacid])LEAGPSSGAPPPS-NH2) | 0.0696 | > 920 | > 5000 | > 5000 | 0.0611 | – | –
2 | CC[C@H](C)[C@H](NC(=O)[C@H](Cc1ccccc1)NC(=O)[C@@H](NC(=O)CNC(=O)[C@H](CCC(=O)O)NC(=O)C(C)(C)NC(=O)[C@@H](N)Cc1ccc(O)cc1)[C@@H](C)O)C(=O)N[C@@H](CO)C(=O)N[C@@H](CC(=O)O)C(=O)N[C@@H](Cc1ccc(O)cc1)C(=O)N[C@@H](CO)C(=O)N[C@H](C(=O)N[C@@](C)(CC(C)C)C(=O)N[C@@H](CC(C)C)C(=O)N[C@@H](CC(=O)O)C(=O)N[C@@H](CCCCN)C(=O)N[C@@H](CCCCNC(=O)COCCOCCNC(=O)COCCOCCNC(=O)CC[C@H](NC(=O)CCCCCCCCCCCCCCCCCCC(=O)O)C(=O)O)C(=O)N[C@@H](Cc1c[nH]cn1)C(=O)N[C@@H](CCC(N)=O)C(=O)NC(C)(C)C(=O)N[C@@H](CC(=O)O)C(=O)N[C@@H](Cc1ccccc1)C(=O)N[C@H](C(=O)N[C@@H](CCC(=O)O)C(=O)N[C@@H](Cc1ccc(O)cc1)C(=O)N[C@@H](CC(C)C)C(=O)N[C@@H](CC(C)C)C(=O)N[C@@H](CCC(=O)O)C(=O)N[C@@H](CCC(N)=O)C(=O)NCC(=O)N1CCC[C@H]1C(=O)N[C@@H](CO)C(=O)N[C@@H](CO)C(=O)NCC(=O)N[C@@H](C)C(=O)N1CCC[C@H]1C(=O)N1CCC[C@H]1C(=O)N1CCC[C@H]1C(=O)N[C@@H](CO)C(N)=O)C(C)C)[C@@H](C)CC [Example 67] (H-Y[Aib]EGTFISDYSI[αMeL]LDKK([AEEA-AEEA-γGlu-C20 diacid])HQ[Aib]DFVEYLLEQGPSSGAPPPS-NH2) | – | – | > 5000 | > 5000 | 0.0627 | – | –
3 | keyhole limpet hemocyanin [KLH, reference compound] | – | – | – | – | – | 100 | 164.285 (n = 10)
